According to patent US5763464A, “Retroviral agents containing anthranilamide, substituted benzamide and other subunits, and methods of using same” (The United States of America as represented by the …, priority 1995, dated 1998):
Like-named read-outs stand apart in the source and are kept apart here. Values belong to the compound of their own block, whether it stands above or below them.

How the values were obtained:
[1] = target: T1, HIV-1 protease (wild-type, WT) (Human immunodeficiency virus type 1 group M subtype B, UniProt P04585); test: biochemical
T1 construct: purified HIV-1 protease (wild-type, WT)
Description: The inhibition constants (Ki) for the compounds of the above examples were determined using purified HIV-1 protease (wild-type, WT) (Tables I, II and III). Ki is an inhibition constant of a given compound as derived by enzyme kinetics. A low Ki represents a high affinity of the compound for the enzyme, i.e., tight binding or low dissociation. Inhibition of the cleavage was assayed using a fluorogenic substrate available from Molecular Probes, Inc., Eugene, Oreg., and described in Kageyama et al., Antimicrob. Agents. Chemother., 37, 272 (1993), and a fluorogenic substrate available from Bachem California, Torrance, Calif., and described in Kageyama et al. (1993), supra. Percent inhibition is the percentage inhibition of an enzyme's activity by a given compound at a given concentration.

[2] = test system: HIV-1 (CEM cells chronically infected with HIV-1); test: Anti-retroviral activity in CEM cells chronically infected with HIV-1, soluble formazan assay; type: cell-based; conditions: Human immunodeficiency virus 1, CCRF-CEM
Description: Using the soluble formazan assay described by Weislow et al. (J. Nat'l. Cancer Inst., 81, 577-586 (1989)), CEM cells chronically infected with HIV-1 were used to assay the anti-retroviral activity of test compounds described herein. The concentration of compound that inhibits 50% of viral activity (EC50; determined as described in Weislow et al. (1989), supra) and the inhibition constant (Ki, as defined in Example 7) for the compound were determined.

[3] = test system: CEM cells; test: Toxicity (IC50) in CEM cells, soluble formazan assay; conditions: Homo sapiens, CCRF-CEM
[4] = Table I, unit inferred, read-out: Ki

SMILES: CC(C)(C)OC(=O)N[C@@H](Cc1ccccc1)C[C@H](O)[C@H](Cc1ccccc1)NC(=O)c1ccccc1NC(=O)OCc1ccccn1 [AN-42]
Ki ([1]; Table II, read-out: Ki): 0.85 nM
EC50 ([2]; Table II, read-out: EC50): < 1000 nM
IC50 [3]: 23000 nM

Ki ([1]; Table II, read-out: Ki): 1.05 nM
EC50 ([2]; Table II, read-out: EC50): 1600 nM
SMILES: CC(C)(C)NC(=O)N[C@@H](Cc1ccccc1)C[C@H](O)[C@H](Cc1ccccc1)NC(=O)c1ccccc1NC(=O)OCc1ccccn1 [AN-43]
IC50 [3]: 33000 nM

Ki [1, 4]: 96 nM
SMILES: Nc1ccccc1C(=O)N[C@@H](Cc1ccccc1)C[C@H](O)[C@H](Cc1ccccc1)NC(=O)c1ccccc1N [AN-72]

SMILES: Cc1c(O)cccc1C(=O)N[C@@H](Cc1ccccc1)[C@H](O)[C@H](O)[C@H](Cc1ccccc1)NC(=O)O[C@H]1CCOC1 [AN-76]
Ki [1]: 2 nM
EC50 ([2]; Table I): 7500 nM
IC50 [3]: > 50000 nM

SMILES: Cc1c(O)cccc1C(=O)N[C@@H](Cc1ccccc1)[C@@H](O)[C@@H](O)[C@H](Cc1ccccc1)NC(=O)O[C@H]1CCOC1 [AN-78]
Ki [1]: 1.43 nM
EC50 ([2]; Table I): 21000 nM
IC50 [3]: > 50000 nM

Ki [1, 4]: 3.65 nM
SMILES: Cc1c(O)cccc1C(=O)N[C@@H](Cc1ccccc1)[C@@H](O)C[C@H](Cc1ccccc1)NC(=O)c1ccc(O)cc1 [AN-88]

Ki [1, 4]: 1.88 nM
SMILES: Cc1c(O)cccc1C(=O)N[C@@H](Cc1ccccc1)[C@@H](O)C[C@H](Cc1ccccc1)NC(=O)c1cccc(O)c1 [AN-89]

Ki ([1]; Table I, unit printed in the line, read-out: Ki): 1500 nM
SMILES: COc1ccc(S(=O)(=O)N[C@@H](Cc2ccccc2)C[C@H](O)[C@H](Cc2ccccc2)NC(=O)c2cccc(O)c2C)cc1 [AN-91]

Ki [1, 4]: 0.46 nM
EC50 ([2]; Table I, read-out: EC50): 1300 nM
SMILES: Cc1c(O)cccc1C(=O)N[C@@H](Cc1ccccc1)[C@@H](O)C[C@H](Cc1ccccc1)NC(=O)OCc1cccnc1 [AN-92, (2S,3S,5S)-2-[N-[(3-hydroxy-2-methylphenyl)carbonyl]amino]-5-[N-[(3-pyridinylmethoxy)carbonyl]amino]-1,6-diphenyl-3-hydroxy hexane]
IC50 [3]: > 100000 nM

SMILES: Cc1c(O)cccc1C(=O)N[C@@H](Cc1ccccc1)[C@@H](O)C[C@H](Cc1ccccc1)NC(=O)c1cccc(N)c1 [AN-96, (2S,3S,5S)-2-[N-[(3-hydroxy-2-methylphenyl)carbonyl]amino]-5-[N-(3-aminophenyl)carbonyl]amino-1,6-diphenyl-3-hydroxy hexane]
Ki [1]: 0.75 nM
EC50 ([2]; Table I): 630 to 58000 nM
IC50 [3]: > 100000 nM

Ki [1, 4]: 0.32 nM
EC50 ([2]; Table I, read-out: EC50): 630 to 1000 nM
SMILES: Cc1c(O)cccc1C(=O)N[C@@H](Cc1ccccc1)[C@@H](O)C[C@H](Cc1ccccc1)NC(=O)O[C@H]1CCOC1 [AN-98]
IC50 [3]: > 100000 nM

SMILES: Cc1c(O)cccc1C(=O)N[C@@H](Cc1ccccc1)C[C@H](O)[C@H](Cc1ccccc1)NC(=O)c1cccc(O)c1C [DD-8]
Ki ([1]; read-out: Ki): 0.8 nM
EC50 ([2]; Table I, read-out: EC50): 400 nM
IC50 [3]: 22000 nM

Ki ([1]; Table II, read-out: Ki): 5.9 nM
SMILES: O=C(Nc1ccccc1C(=O)N[C@@H](Cc1ccccc1)[C@@H](O)[C@@H](O)[C@H](Cc1ccccc1)NC(=O)c1cccc(O)c1)OCc1ccccc1 [DN-3]

Ki ([1]; Table II, read-out: Ki): 1.77 nM
EC50 ([2]; Table II, read-out: EC50): 900 nM
SMILES: O=C(Nc1ccccc1C(=O)N[C@@H](Cc1ccccc1)[C@@H](O)[C@@H](O)[C@H](Cc1ccccc1)NC(=O)c1cccc(O)c1)OCc1ccccn1 [DN-4]
IC50 [3]: 9000 to 28000 nM

SMILES: CC(C)(C)OC(=O)N[C@@H](Cc1ccccc1)[C@@H](O)[C@@H](O)[C@H](Cc1ccccc1)NC(=O)c1ccccc1NC(=O)OCc1ccccn1 [DN-11]
Ki ([1]; Example 2, read-out: Ki): 0.4 nM
Ki ([1]; Table II, read-out: Ki): 0.45 nM
EC50 ([2]; Table II, read-out: EC50): 490 nM
IC50 [3]: 21000 nM

SMILES: O=C(N[C@@H](Cc1ccccc1)[C@H](O)[C@H](O)[C@H](Cc1ccccc1)NC(=O)c1cccc(O)c1)c1cccc(O)c1 [Diol-10]
Ki ([1]; Table I, unit not given): 22/25

Ki [1, 4]: 276 nM
SMILES: O=C(N[C@@H](Cc1ccccc1)[C@H](O)[C@H](O)[C@H](Cc1ccccc1)NC(=O)c1ccc(O)cc1)c1ccc(O)cc1 [Diol-51]

SMILES: Cc1c(O)cccc1C(=O)N[C@@H](Cc1ccccc1)[C@H](O)[C@H](O)[C@H](Cc1ccccc1)NC(=O)c1cccc(O)c1C [Diol-52]
Ki [1, 4]: 1.2 nM
EC50 ([2]; Table I): 900 nM
IC50 [3]: 25000 nM

SMILES: O=C(N[C@@H](Cc1ccccc1)[C@H](O)[C@H](O)[C@H](Cc1ccccc1)NC(=O)c1ccccc1)c1ccccc1 [Diol-56]
Ki [1, 4]: 40 nM

SMILES: Cc1ccccc1C(=O)N[C@@H](Cc1ccccc1)[C@H](O)[C@H](O)[C@H](Cc1ccccc1)NC(=O)c1ccccc1C [Diol-57]
Ki [1, 4]: 8 nM

Percent inhibition (Ki column) ([1]; Table I, 10μ): 32%
SMILES: O=C(N[C@@H](Cc1ccccc1)[C@H](O)[C@H](O)[C@H](Cc1ccccc1)NC(=O)c1ccccc1O)c1ccccc1O [Diol-58]

Ki ([1]; Table II, read-out: Ki): 0.034 nM
EC50 ([2]; Table II, read-out: EC50): 490 nM
SMILES: CC(C)C(NC(=O)OCc1ccccn1)C(=O)N[C@@H](Cc1ccccc1)C[C@H](O)[C@H](Cc1ccccc1)NC(=O)c1ccccc1NC(=O)OCc1ccccn1 (some centres unmarked) [LL-68]
IC50 [3]: 22000 nM

SMILES: Cc1c(O)cccc1C(=O)N[C@@H](Cc1ccccc1)C[C@H](O)[C@H](Cc1ccccc1)NC(=O)c1ccccc1NC(=O)OCc1ccccn1 [LL-69]
Ki ([1]; Table II, read-out: Ki): 0.68 nM

SMILES: CC(C)(C)OC(=O)N[C@@H](Cc1ccccc1)[C@@H](O)[C@@H](O)[C@H](Cc1ccccc1)NC(=O)c1ccccc1NC(=O)OCc1ccccn1 [LL-70]
Ki ([1]; read-out: Ki): 0.14 nM

SMILES: CC(C)C(NC(=O)OCc1ccccn1)C(=O)N[C@@H](Cc1ccccc1)[C@@H](O)[C@@H](O)[C@H](Cc1ccccc1)NC(=O)c1ccccc1NC(=O)OCc1ccccn1 (stereo partly drawn) [LL-73, (2S,3R,4S,5S)-2-[N-(N-(2-pyridinylmethoxy)valinyl)amino]-5-[N-[N-((2-pyridinylmethoxy)carbonyl)anthranilyl]amino]-3,4-dihydroxy-1,6-diphenyl hexane]
EC50 ([2]; Table III): 4 nM
IC50 [3]: 47000 nM

SMILES: Cc1c(O)cccc1C(=O)N[C@@H](Cc1ccccc1)[C@@H](O)C[C@H](Cc1ccccc1)NC(=O)c1ccccc1NC(=O)OCc1ccccn1 [LL-82, (2S,3S,5S)-2-[N-[(3-hydroxy-2-methylphenyl)carbonyl]amino]-5-[N-[N-[(2-pyridinylmethoxy)carbonyl]anthranilyl]amino]-1,6-diphenyl-3-hydroxy hexane]
Ki [1]: 0.06 ± 0.018 nM
EC50 ([2]; Table III): 33 nM
IC50 [3]: 40000 nM

SMILES: O=C(Nc1ccccc1C(=O)N[C@@H](Cc1ccccc1)C[C@H](O)[C@H](Cc1ccccc1)NC(=O)O[C@H]1CCOC1)OCc1ccccn1 [LL-101, (2S,3S,5S)-5-[N-[N-((2-pyridinylmethoxy)carbonyl)anthranilyl]amino]2-[N-((3-S-(tetrahydrofuranyl)oxy)carbonyl)amino]-1,6-diphenyl-3-hydroxy hexane]
Ki [1]: 0.042 ± 0.007 nM

Ki ([1]; Table III, read-out: Ki): 0.76 nM
SMILES: O=C(Nc1ccccc1C(=O)N[C@@H](Cc1ccccc1)[C@H](O)[C@H](O)[C@H](Cc1ccccc1)NC(=O)c1cccc(O)c1)OCc1ccccn1 [ND-4]

SMILES: O=C(N[C@@H](Cc1ccccc1)C[C@H](O)[C@H](Cc1ccccc1)NC(=O)O[C@H]1CCOC1)O[C@H]1CCOC1 [RS-194]
Ki [1]: 1.68 nM
EC50 ([2]; Table I): 6500 nM
IC50 [3]: > 50000 nM

Ki ([1]; read-out: Ki): 8.4 nM
SMILES: CC(C)(C)OC(=O)N[C@@H](Cc1ccccc1)[C@H](O)[C@H](O)[C@H](Cc1ccccc1)NC(=O)OC(C)(C)C [RS-196]

Ki [1, 4]: 8.3 nM
SMILES: Cc1c(O)cccc1C(=O)N[C@@H](Cc1ccccc1)[C@H](O)[C@H](O)[C@H](Cc1ccccc1)NC(=O)OC(C)(C)C [RS-198]

Ki [1, 4]: 0.66 nM
EC50 ([2]; Table I, read-out: EC50): 1300 nM
SMILES: Cc1c(O)cccc1C(=O)N[C@@H](Cc1ccccc1)[C@@H](O)[C@@H](O)[C@H](Cc1ccccc1)NC(=O)OC(C)(C)C [RS-199]
IC50 [3]: > 50000 nM

Ki [1, 4]: 6.6 nM
SMILES: Cc1ccc(O)cc1C(=O)N[C@@H](Cc1ccccc1)C[C@H](O)[C@H](Cc1ccccc1)NC(=O)c1cc(O)ccc1C [RS-201]
